For test [1], the system named is human prostate cancer cell line LNCaP-FGC. The test can be described thus: PSA production test in human prostate cancer cell line. It counts as cell-based. Conditions: 3 days, vehicle as 0, 350 nM testosterone as 100, test compound final concentration 0.1-1000 nM (concentration not given). Here is the method: The human prostate cancer cell line LNCaP-FGC was plated on a 96 well plate at 5,000 cells/100 μL/well. The next day, a test compound (final concentration 0.1-1000 nM), or a vehicle (control) or testosterone (final concentration 0.35-350 nM) was added thereto, and the culture supernatant was recovered 3 days after the drug addition. The concentration of PSA (Prostate Specific Antigen) produced in an androgen-dependent manner in the culture supernatant was measured by ELISA. The PSA production promotion rate by the test compound was calculated with vehicle addition group as 0 and 350 nM testosterone addition group as 100.

Test [2] deals with T1, AR having LNCaP-type mutation (Homo sapiens, UniProt P10275, T878A).
T1 sequence (P10275 1-920 T878A): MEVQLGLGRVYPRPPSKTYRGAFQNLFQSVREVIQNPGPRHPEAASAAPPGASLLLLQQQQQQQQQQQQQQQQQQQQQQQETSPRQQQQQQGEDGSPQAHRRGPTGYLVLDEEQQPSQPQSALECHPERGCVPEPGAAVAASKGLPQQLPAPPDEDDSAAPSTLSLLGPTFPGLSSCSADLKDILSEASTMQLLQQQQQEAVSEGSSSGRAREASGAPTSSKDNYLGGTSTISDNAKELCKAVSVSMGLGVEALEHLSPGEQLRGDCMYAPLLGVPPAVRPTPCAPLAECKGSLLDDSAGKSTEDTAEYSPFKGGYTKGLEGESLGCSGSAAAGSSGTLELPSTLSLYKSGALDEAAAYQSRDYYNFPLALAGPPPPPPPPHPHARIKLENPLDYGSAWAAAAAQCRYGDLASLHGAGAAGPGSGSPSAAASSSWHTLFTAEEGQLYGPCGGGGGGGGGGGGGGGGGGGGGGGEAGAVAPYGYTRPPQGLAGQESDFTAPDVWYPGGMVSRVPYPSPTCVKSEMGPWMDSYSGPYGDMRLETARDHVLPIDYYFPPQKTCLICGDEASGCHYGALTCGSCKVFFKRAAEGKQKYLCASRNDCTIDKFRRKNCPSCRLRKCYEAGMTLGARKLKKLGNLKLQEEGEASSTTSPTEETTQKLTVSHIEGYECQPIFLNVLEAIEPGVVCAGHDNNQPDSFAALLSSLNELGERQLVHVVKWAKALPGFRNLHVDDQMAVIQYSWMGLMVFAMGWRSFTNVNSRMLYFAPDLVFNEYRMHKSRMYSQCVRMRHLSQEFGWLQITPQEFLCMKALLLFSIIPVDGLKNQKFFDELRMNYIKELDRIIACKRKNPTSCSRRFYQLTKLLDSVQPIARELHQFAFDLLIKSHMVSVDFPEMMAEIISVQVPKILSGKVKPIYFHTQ
Nature of the test: AR binding inhibitory test (LNCaP-type), radiolabeled mibolerone. The conditions noted are these: 100 nM compound, 3 nM radiolabeled mibolerone, 4° C. 3 hr. Here is the method:
(§1) To a solution containing a wild-type androgen receptor (AR) or AR having LNCaP-type mutation were added 3 nM radiolabeled mibolerone and 100 nM compound. After the solution was incubated at 4° C. for 3 hr, B (Bound)/F (Free) separation was performed by the dextran/charcoal method. The label count of B was measured, and the inhibitory rate of the compound was calculated.

For test [3], the target named is T2, AR (wild-type) (Homo sapiens, UniProt P10275).
T2 construct: expressed in transfected cells; host or cells: Cos-7
T2 sequence (P10275 1-920): T1 sequence (P10275 1-920 T878A) with A878T
Nature of the test: Reporter assay system using Cos7 cell, luciferase under androgen responsive promoter of two tandem PSA promoter regions. It counts as cell-based. The conditions noted are these: 100 nM compound, 24 hr, luciferase activity with 1 μM 5α-dihydrotestosterone as 100. Here is the method:
Cos-7 (5,000,000 cells) were sown in a flask (150 cm^2), and cultured in a culture medium (DMEM medium containing 10% Dextran Charcoal (DCC)-Fetal Bovine Serum (FBS) and 2 mM glutamine) for 24 hr. A vector DNA containing AR gene, and a vector DNA prepared by binging luciferase gene at the downstream of an androgen responsive promoter prepared by ligating two PSA promoter regions in tandem were co-transfected by the liposome method. After culture for 2 hr, the cells were harvested, 10,000 cells were plated on a 96 well plate and cultured for 3 hr, after which 1 μM of 5α-dihydrotestosterone or 100 nM of a compound was added thereto. After culture for 24 hr, luciferase activity was determined. The induction rate by the compound was determined with the luciferase activity induced by addition of 1 μM of 5α-dihydrotestosterone as 100.
In general terms: A reporter such as luciferase makes a cellular process visible.

For test [4], the target named is T3, wild-type androgen receptor (AR) (Homo sapiens, UniProt P10275).
T3 sequence (P10275 1-920): T1 sequence (P10275 1-920 T878A) with A878T
The test can be described thus: AR binding inhibitory test (wild-type), radiolabeled mibolerone. The conditions noted are these: 100 nM compound, 3 nM radiolabeled mibolerone, 4° C. 3 hr, read-out: Inhibitory rate (%) at 100 nM wild-type. Here is the method:
as §1

Test [5] concerns the target T2, AR (wild-type). The test can be described thus: Reporter assay system using Cos7 cell, luciferase under MMTV-derived androgen responsive promoter. Format: cell-based. Conditions: 100 nM compound, 24 hr, luciferase activity with 1 μM 5α-dihydrotestosterone as 100. Here is the method: Cos-7 (5,000,000 cells) were sown in a flask (150 cm^2), and cultured in a culture medium (DMEM medium containing 10% Dextran Charcoal (DCC)-Fetal Bovine Serum (FBS) and 2 mM glutamine) for 24 hr. A vector DNA containing AR gene, and a vector DNA prepared by binging luciferase gene at the downstream of an MMTV (Mouse Mammary Tumor Virus)-derived androgen responsive promoter were co-transfected by the liposome method. After culture for 2 hr, the cells were harvested, 10,000 cells were plated on a 96 well plate and cultured for 3 hr, after which 1 μM of 5α-dihydrotestosterone or 100 nM of a compound was added. After culture for 24 hr, luciferase activity was determined. The induction rate by the compound was determined with the luciferase activity induced by addition of 1 μM of 5α-dihydrotestosterone as 100.

The mark [6] stands for this setting: Table 3, read-out: Inhibitory rate (%) at 100 nM LNCaP-type.
The mark [7] stands for this setting: Table 6, read-out: Inhibitory rate (%) at 100 nM LNcap-type.

Where a chain is given by its changes, count along the chain named. Where two headings read alike, the source gives them in different places.

`Cc1c(N2CC[C@H](C(C)(C)O)[C@@H]2C)ccc(C#N)c1Cl` [Compound 2, 2-chloro-4-[(2S,3S)-3-(1-hydroxy-1-methylethyl)-2-methylpyrrolidin-1-yl]-3-methylbenzonitrile]: the “PSA production promotion rate (%)” value in test [1] worked out at 103%. The inhibition at 0.1 µM in test [2] (setting [6]) and in test [4] (Table 3) was 99% throughout. Moreover, the “Induction rate (%) at 100 nM wild-type” value on AR (wild-type) [3] is 71%.

In the case of `C[C@H]1[C@@H](C(C)(C)O)CCN1c1ccc(C#N)c(Cl)c1` [Compound 3, 2-chloro-4-[(2S,3S)-3-(1-hydroxy-1-methylethyl)-2-methylpyrrolidin-1-yl]benzonitrile], the “PSA production promotion rate (%)” value in test [1] is 81%. Also, the inhibition at 0.1 µM worked out at 99% in test [2] (setting [6]) and 98% in test [4] (Table 3). Also, at AR (wild-type) [3], the “Induction rate (%) at 100 nM wild-type” value is listed as 57%.

Turning to `C[C@H]1[C@@H](C(C)(C)O)CCN1c1ccc(C#N)c(Cl)c1F` [Compound 53, 2-chloro-3-fluoro-4-[(2S,3S)-3-(1-hydroxy-1-methylethyl)-2-methylpyrrolidin-1-yl]benzonitrile], the inhibition at 0.1 µM in test [2] (setting [7]) and in test [4] (Table 6) was 98% in each case. Besides, the “Induction rate (%) at 100 nM wild-type” value on AR (wild-type) [5] came to 33%.

Turning to `C[C@H]1[C@@H](C(C)(C)O)CCN1c1ccc(C#N)c(Br)c1` [Compound 71, 2-bromo-4-[(2S,3S)-3-(1-hydroxy-1-methylethyl)-2-methylpyrrolidin-1-yl]benzonitrile], the inhibition at 0.1 µM in test [2] (setting [7]) came out at 97%; in test [4] (Table 6), 99%. On AR (wild-type) [5], the “Induction rate (%) at 100 nM wild-type” value is listed as 31%.

As to `C[C@H]1[C@@H](C(C)(C)O)CCN1c1ccc(C#N)c(Cl)c1Cl` [Compound 75, 2,3-dichloro-4-[(2S,3S)-3-(1-hydroxy-1-methylethyl)-2-methylpyrrolidin-1-yl]benzonitrile], the inhibition at 0.1 µM in test [2] (setting [7]) and in test [4] (Table 6) was 99% throughout. For the same compound, the “Induction rate (%) at 100 nM wild-type” value on AR (wild-type) [5] amounted to 60%.

`C[C@H]1[C@@H](C(C)(C)O)CCN1c1ccc(C#N)cc1C(F)(F)F` [Compound 80, 4-[(2S,3S)-3-(1-hydroxy-1-methylethyl)-2-methylpyrrolidin-1-yl]-3-(trifluoromethyl)benzonitrile]: the inhibition at 0.1 µM in test [2] (setting [7]) came to 95%; in test [4] (Table 6), 97%. Further, the “Induction rate (%) at 100 nM wild-type” value on AR (wild-type) [5] is reported as 22%.

Take `CC(C)[C@H]1[C@@H](O)CCN1c1ccc(C#N)c(C(F)(F)F)c1` [Compound 82, 4-[(2S,3S)-3-hydroxy-2-isopropylpyrrolidin-1-yl]-2-(trifluoromethyl)benzonitrile]: the inhibition at 0.1 µM was 97% in test [2] (setting [7]) and 98% in test [4] (Table 6). Further, on AR (wild-type) [5], the “Induction rate (%) at 100 nM wild-type” value is 90%.
